Laboratory results taken from ChEMBL document CHEMBL1201862, “PubChem BioAssay data set” (2004).
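Protocol summary: plate cells (96-well), add compound at 5 concentrations, incubate 48 h, interpolate endpoints linearly. Here, GI50 denotes the concentration required for 50% inhibition of growth.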 Active and inactive are the calls of the source. No stated cut-off is given here; in the data, active = GI50 up to about 1.1 µM and inactive = higher.

What was measured:
Assay in all cases: growth of human tumour cells (NCI), 48 h
MDA-MB-435 = tested on: MDA-MB-435
HCC 2998 = tested on: HCC 2998
COLO 205 = tested on: COLO 205
EKVX = tested on: EKVX
Hs-578T = tested on: Hs-578T
A498 = tested on: A498
SF-295 = tested on: SF-295
HOP-92 = tested on: HOP-92
RPMI-8226 = tested on: RPMI-8226
MCF7 = tested on: MCF7
ACHN = tested on: ACHN
SW-620 = tested on: SW-620
CCRF-CEM = tested on: CCRF-CEM
K562 = tested on: K562
MOLT-4 = tested on: MOLT-4
SN12C = tested on: SN12C
SK-MEL-2 = tested on: SK-MEL-2
SK-OV-3 = tested on: SK-OV-3
IGROV-1 = tested on: IGROV-1
NCI-H226 = tested on: NCI-H226

Compound	GI50 (MDA-MB-435)	GI50 (HCC 2998)	GI50 (COLO 205)	GI50 (EKVX)	GI50 (Hs-578T)	GI50 (A498)	GI50 (SF-295)	GI50 (HOP-92)	GI50 (RPMI-8226)	GI50 (MCF7)	GI50 (ACHN)	GI50 (SW-620)	GI50 (CCRF-CEM)	GI50 (K562)	GI50 (MOLT-4)	GI50 (SN12C)	GI50 (SK-MEL-2)	GI50 (SK-OV-3)	GI50 (IGROV-1)	GI50 (NCI-H226)
O=C(OCC(OC(=O)c1ccccc1)C1CC(C(O)C2CCCCC2)C(=O)O1)c1ccccc1 (stereo not given)	> 100 µM (inactive)	47.9 µM (inactive)	45.9 µM (inactive)	> 100 µM (inactive)	> 100 µM (inactive)	> 100 µM (inactive)	86.7 µM (inactive)	> 100 µM (inactive)	24.2 µM (inactive)	31.7 µM (inactive)	> 100 µM (inactive)	42.3 µM (inactive)	22.5 µM (inactive)	21.4 µM (inactive)	22 µM (inactive)	47.6 µM (inactive)	> 100 µM (inactive)	> 100 µM (inactive)	32.2 µM (inactive)	87.7 µM (inactive)
CCc1n[nH]c(=O)n1CCCCCCCCCCCCn1c(CC)n[nH]c1=O	23.1 µM (inactive)	34.5 µM (inactive)	24.2 µM (inactive)	32 µM (inactive)	22 µM (inactive)	29.2 µM (inactive)	25.1 µM (inactive)	37.1 µM (inactive)	18.6 µM (inactive)	23.9 µM (inactive)	25.2 µM (inactive)	37.2 µM (inactive)	18.7 µM (inactive)	17.9 µM (inactive)	22.5 µM (inactive)	59.8 µM (inactive)	52.8 µM (inactive)	62.4 µM (inactive)	29.5 µM (inactive)	36.9 µM (inactive)
CCCN1CN(c2ccccc2)C2(CCN(CCCC(=O)c3ccc(F)cc3)CC2)C1=O	11 µM (inactive)	7.82 µM (inactive)	0.169 µM (active)	14 µM (inactive)	13.2 µM (inactive)	0.933 µM (active)	11 µM (inactive)	3.41 µM (inactive)	12.4 µM (inactive)	0.6 µM (active)	2.13 µM (inactive)	5.15 µM (inactive)	0.991 µM (active)	16.3 µM (inactive)	4.2 µM (inactive)	2.94 µM (inactive)	11.6 µM (inactive)	19.1 µM (inactive)	2.54 µM (inactive)	6.47 µM (inactive)
O=C(O)CCC(=O)C(=O)O [ALPHA-KETOGLUTARIC ACID]	> 100 µM (inactive)	> 100 µM (inactive)	> 100 µM (inactive)	> 100 µM (inactive)	> 100 µM (inactive)	> 100 µM (inactive)	> 100 µM (inactive)	> 100 µM (inactive)	> 100 µM (inactive)	> 100 µM (inactive)	> 100 µM (inactive)	> 100 µM (inactive)	> 100 µM (inactive)	> 100 µM (inactive)	> 100 µM (inactive)	> 100 µM (inactive)	> 100 µM (inactive)	> 100 µM (inactive)	> 100 µM (inactive)	> 100 µM (inactive)
CC[C@]12CCCN3CCc4c(n(c5ccccc45)C(=O)C1)[C@@H]32 [VINBURNINE]	1.26 µM (inactive)	3.92 µM (inactive)	4.43 µM (inactive)	46.9 µM (inactive)	9.33 µM (inactive)	14.4 µM (inactive)	3.58 µM (inactive)	> 80.9 µM (inactive)	4.56 µM (inactive)	3.51 µM (inactive)	32.4 µM (inactive)	3.94 µM (inactive)	1.31 µM (inactive)	2.9 µM (inactive)	12.2 µM (inactive)	12.9 µM (inactive)	4.92 µM (inactive)	10.8 µM (inactive)	5.85 µM (inactive)	> 83.8 µM (inactive)
